Source: ChEMBL document CHEMBL5352396, “Synthesis and biological evaluation of novel FiVe1 derivatives as potent and selective agents for the treatment of mesenchymal cancers” (Eur J Med Chem, 2022)
pIC50: −log10 of the molar value. Active and inactive are the calls of the source. No cut-off for these calls is given here.

Key:
[1] = AUC (0 to last) in mouse at 25 mg/kg, po by LC-MS/MS analysis; format: ADME, organism-based; design: dose 25 mg/kg, route po; settings: in vivo
[2] = AUC (0 to infinity) in mouse at 25 mg/kg, po by LC-MS/MS analysis; format: ADME, organism-based; design: dose 25 mg/kg, route po; settings: in vivo
[3] = Half life in mouse at 25 mg/kg, po by LC-MS/MS analysis; format: ADME, organism-based; settings: in vivo
[4] = Tmax in mouse at 25 mg/kg, po by LC-MS/MS analysis; format: ADME, organism-based; settings: in vivo
[5] = Cmax in mouse at 25 mg/kg, po by LC-MS/MS analysis; format: ADME, organism-based; design: dose 25 mg/kg, route po; settings: in vivo
[6] = Kinetic solubility of the compound in DPBS buffer at pH 7.4 incubated for 16 hrs under shaking condition by HPLC analysis; format: physicochemical; settings: read-out: Kinetic_solubility
Vimentin (Homo sapiens) [7] = target: Vimentin (Homo sapiens) (UniProt P08670); experiment: Induction of Vimentin phosphorylation in human HT-1080 cells at 1 uM incubated for 24 hrs by Western blot analysis; format: cell-based; settings: filed as activator
Vimentin (Homo sapiens) [8] = target: Vimentin (Homo sapiens) (UniProt P08670); experiment: Induction of Vimentin phosphorylation in human RD cells at 1 uM incubated for 24 hrs by Western blot analysis; format: cell-based; settings: filed as activator
Vimentin (Homo sapiens) [9] = target: Vimentin (Homo sapiens) (UniProt P08670); experiment: Induction of Vimentin phosphorylation in human GCT cells at 1 uM incubated for 24 hrs by Western blot analysis; format: cell-based; settings: filed as activator
Vimentin (Homo sapiens) [10] = target: Vimentin (Homo sapiens) (UniProt P08670); experiment: Induction of Vimentin phosphorylation in human HT-1080 cells at 100 nM incubated for 24 hrs by Western blot analysis; format: cell-based
Vimentin (Homo sapiens) [11] = target: Vimentin (Homo sapiens) (UniProt P08670); experiment: Induction of Vimentin phosphorylation in human RD cells at 100 nM incubated for 24 hrs by Western blot analysis; format: cell-based
Vimentin (Homo sapiens) [12] = target: Vimentin (Homo sapiens) (UniProt P08670); experiment: Induction of Vimentin phosphorylation in human GCT cells at 100 nM incubated for 24 hrs by Western blot analysis; format: cell-based
[13] = Metabolic stability in CD-1 mouse liver microsomes assessed as half life at 100 uM measured upto 60 mins in presence of NADPH by LC-MS/MS analysis; format: ADME, Microsome; settings: mouse, microsomes, 1 h, 100 µM
[14] = Metabolic stability in CD-1 mouse liver microsomes assessed as intrinsic clearance at 100 uM measured upto 60 mins in presence of NADPH by LC-MS/MS analysis; format: ADME, Microsome; settings: mouse, microsomes, 1 h, 100 µM
[15] = Metabolic stability in CD-1 mouse liver microsomes assessed as parent compound remaining at 100 uM measured after 60 mins in presence of NADPH by LC-MS/MS analysis; format: ADME, Microsome; settings: read-out: Stability
[16] = Drug metabolism in mouse hepatocytes assessed as dealkylation by measuring M1 metabolite formation; format: ADME, cell-based, Hepatocyte
[17] = Drug metabolism in mouse hepatocytes assessed as dealkylation and oxygenation by measuring M2 metabolite formation; format: ADME, cell-based, Hepatocyte
[18] = Drug metabolism in mouse hepatocytes assessed as dealkylation by measuring M3 metabolite formation; format: ADME, cell-based, Hepatocyte
[19] = Drug metabolism in mouse hepatocytes assessed as dealkylation by measuring M4 metabolite formation; format: ADME, cell-based, Hepatocyte
[20] = Drug metabolism in mouse hepatocytes assessed as oxygenation by measuring M5 metabolite formation; format: ADME, cell-based, Hepatocyte
[21] = Drug metabolism in mouse hepatocytes assessed as oxygenation by measuring M6 metabolite formation; format: ADME, cell-based, Hepatocyte
[22] = Drug metabolism in mouse hepatocytes assessed as oxygenation by measuring M7 metabolite formation; format: ADME, cell-based, Hepatocyte
HT-1080 = experiment: cells; settings: Homo sapiens, HT-1080, 72 h
RD = experiment: cells; settings: Homo sapiens, 72 h
GCT = experiment: cells; settings: Homo sapiens, 72 h
MCF7 = experiment: cells; settings: Homo sapiens, MCF7, 72 h

Vimentin (Homo sapiens), sequence (P08670 whole entry): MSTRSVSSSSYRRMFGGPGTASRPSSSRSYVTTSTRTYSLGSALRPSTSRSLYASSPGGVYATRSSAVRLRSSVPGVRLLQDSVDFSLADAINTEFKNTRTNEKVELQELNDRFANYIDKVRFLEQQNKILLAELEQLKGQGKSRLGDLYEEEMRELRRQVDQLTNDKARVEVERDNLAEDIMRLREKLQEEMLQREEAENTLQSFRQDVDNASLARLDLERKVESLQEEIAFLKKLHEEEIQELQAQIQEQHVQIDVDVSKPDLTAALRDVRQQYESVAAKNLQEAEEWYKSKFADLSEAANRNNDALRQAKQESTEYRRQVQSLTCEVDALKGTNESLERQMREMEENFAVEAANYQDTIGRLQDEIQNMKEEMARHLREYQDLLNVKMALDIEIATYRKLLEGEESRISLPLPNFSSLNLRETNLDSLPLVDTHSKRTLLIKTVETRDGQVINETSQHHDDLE

- AUC(0-t) [1]: 310 ng·h/mL
- AUC(0-inf) [2]: 339 ng·h/mL
- half-life [3]: 274 min
- Tmax [4]: 30 min
- Cmax [5]: 110 ng/mL
- solubility kinetic at 16 h [6]: < 1 µM
- Activity (Vimentin (Homo sapiens) [7]): Active
- Activity (Vimentin (Homo sapiens) [8]): Active
- Activity (Vimentin (Homo sapiens) [9]): Active
- Activity (Vimentin (Homo sapiens) [10]): inactive
- Activity (Vimentin (Homo sapiens) [11]): inactive
- Activity (Vimentin (Homo sapiens) [12]): inactive
- t1/2 [13]: 11.9 min
- microsomal intrinsic clearance [14]: 116.1 µL/min/mg
- remaining at 1 h, 100 µM [15]: 3.2%
- Drug metabolism [16]: Metabolite_Detected
- Drug metabolism [17]: Metabolite_Detected
- Drug metabolism [18]: Metabolite_Detected
- Drug metabolism [19]: Metabolite_Detected
- Drug metabolism [20]: Metabolite_Detected
- Drug metabolism [21]: Metabolite_Detected
- Drug metabolism [22]: Metabolite_Detected
- pIC50 (HT-1080): 5.81
- pIC50 (RD): 5.51
- pIC50 (GCT): 5.77
- pIC50 (MCF7): < 4.70
Compound: Clc1cccc(N2CCN(c3cnnc4c(Cl)cccc34)CC2)c1
